Results as given in patent publication US11857637B2, “Anti-CD25 antibody-maytansine conjugates and methods of use thereof” (priority 2019, dated 2024).
pIC50: −log10 of the molar value. Read-outs that look alike come from different tables or passages of the source.

Assays:
[1] = test system: CD25-positive leukemia and lymphoma cell lines, SU-DHL-1, HDLM-2, EoL-1, L-540, and Karpas 299; assay: In vitro cytotoxicity, range over the five cell lines; type: cell-based; settings: read-out: IC50 concentrations (range across assays)
Method: (§1) The CD25-positive leukemia and lymphoma cell lines, SU-DHL-1, HDLM-2, EoL-1, L-540, and Karpas 299, were obtained from the ATCC and DSMZ cell banks, or were tested at Crown Bioscience, Inc. The cells were maintained in RPMI-1640 medium (Cellgro) supplemented with 10 or 20% fetal bovine serum (Invitrogen) and Glutamax (Invitrogen). 24 h prior to plating, cells were passaged to ensure log-phase growth. On the day of plating, 5000 cells/well were seeded onto 96-well plates in 100 μL normal growth medium supplemented with 10 IU penicillin and 10 μg/mL streptomycin (Cellgro). Cells were treated at various concentrations with 20 μL of diluted analytes, and the plates were incubated at 37° C. in an atmosphere of 5% CO2. After 5 d, 100 μL/well of Cell Titer-Glo reagent (Promega) was added, and luminescence was measured using a Molecular Devices SpectraMax M5 plate reader. GraphPad Prism software was used for data analysis.

Karpas 299 xenograft = Karpas 299 xenograft study; type: in vivo, Female CB17.SCID mice; settings: 10 mg/kg intravenously, single dose or qwk×4; at 28 days; subcutaneous Karpas 299 tumors, FIG. 11
Method: Female CB17.SCID mice (6/group) were inoculated subcutaneously with 5×10^6 Karpas 299 cells. Treatment began when the tumors reached an average of 205 mm^3, at which time the animals were dosed intravenously with vehicle alone or the anti-CD25 HIPS-4AP-maytansine conjugate (10 mg/kg). One group received a single dose of the anti-CD25 HIPS-4AP-maytansine conjugate, while another group was dosed once per week for a total of four doses (qwk×4). The animals were monitored twice weekly for body weight and tumor size. Animals were euthanized when tumors reached 2000 mm^3.

Karpas 299 cells = assay: In vitro cytotoxicity (Cell Titer-Glo, 5 d); type: cell-based; settings: Karpas 299 cell line, 5 d incubation, FIG. 10
Method: as §1

SU-DHL-1 cells = assay: In vitro cytotoxicity (Cell Titer-Glo, 5 d); type: cell-based; settings: SU-DHL-1 cell line, 5 d incubation, FIG. 6
Method: as §1

EoL-1 cells = assay: In vitro cytotoxicity (Cell Titer-Glo, 5 d); type: cell-based; settings: EoL-1 cell line, 5 d incubation, FIG. 8
Method: as §1

L-540 cells = assay: In vitro cytotoxicity (Cell Titer-Glo, 5 d); type: cell-based; settings: L-540 cell line, 5 d incubation, FIG. 9
Method: as §1

HDLM-2 cells = assay: In vitro cytotoxicity (Cell Titer-Glo, 5 d); type: cell-based; settings: HDLM-2 cell line, 5 d incubation, FIG. 7
Method: as §1

Compound	pIC50 ([1]; 120 h)	detectable tumors at median time to endpoint of vehicle control groups (Karpas 299 xenograft)	pIC50 ([1]; range over all five tested cell lines, 5 d incubation)	pIC50 (Karpas 299 cells)	pIC50 (SU-DHL-1 cells)	pIC50 (EoL-1 cells)	pIC50 (L-540 cells)	pIC50 (HDLM-2 cells)
COc1cc2cc(c1Cl)N(C)C(=O)C[C@H](OC(=O)[C@H](C)N(C)C(C)=O)[C@]1(C)O[C@H]1[C@H](C)[C@@H]1C[C@@](O)(NC(=O)O1)[C@H](OC)/C=C/C=C(\C)C2 [free maytansine, maytansine]	9.72 to 10.52							
anti-CD25 HIPS-4AP-maytansine conjugate: C-terminally aldehyde-tagged anti-CD25 antibody (daclizumab) conjugated to a maytansine payload attached to a HIPS-4AP linker; DAR 1.75-1.84		none of the animals that had been dosed with the anti-CD25 HIPS-4AP-maytansine conjugate had detectable tumors	9.31 to 10.22	9.31	9.62	10.15	9.37	10.22
